The record followed here is article PMC5069167 (Nature chemical biology, 2016).

The target of this assay is T1, PolD (Streptomyces asoensis, UniProt C1IC31).
T1 sequence (C1IC31 1-215): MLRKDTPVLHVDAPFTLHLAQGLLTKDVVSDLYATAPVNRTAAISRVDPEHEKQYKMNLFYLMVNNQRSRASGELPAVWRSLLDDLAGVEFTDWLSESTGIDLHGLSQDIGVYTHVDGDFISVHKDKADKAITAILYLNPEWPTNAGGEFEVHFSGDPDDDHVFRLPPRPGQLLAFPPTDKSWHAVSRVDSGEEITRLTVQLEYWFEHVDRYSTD
As to the kind of experiment: binding and oxidation of alpha-KG, succinate detection by HR-MS. Format: biochemical. Conditions: Fe(II), ascorbate 5 mM, O2, pH 7.6, 25 °C.

For the compound `O=C(O)CCC(=O)C(=O)O` [α-KG], the “binding and oxidation of alpha-KG, succinate detection by HR-MS” value was “non-heme mono-iron center capable of binding and oxidizing α-KG”.
